Assays:
HepG2 cells = type: cell-based, human
Description: (§1) The cell line of the invention can further be used in a method for assessing toxicity of chemicals or drugs using methods known in the art. For example, lactate dehydrogenase (LDH) leakage from cells into the culture medium is an established method to assess cell injury. Enzyme activity in the culture medium following exposure of cells to a chemical for a certain time will be expressed as percentage of the total of intra- and extracellular enzyme activity. Another example is the determination of cytochrome c release from mitochondria into the cytosol, which is a measure of mitochondria-mediated induction of lethal cell injury. Cells can be exposed to various concentrations of a chemical for various time points. The cells can then be harvested, homogenized, and mitochondria and cytosol isolated by differential centrifugation. The subcellular fractions can then be lysed, loaded onto SDS-PAGE gels, and probed with a specific antibody against cytochrome c.
To determine whether HC04 cells would respond to a standard hepatotoxicant in vitro, the concentration- and time-dependent toxicity of acetaminophen (APAP) was assessed and compared to that in HepG2 cells.

[1] = test system: mitochondrial permeability transition pore; assay: Membrane permeability transition (mPT), large amplitude swelling at 540 nm, isolated liver mitochondria; type: biochemical, mouse
Experimental: (§2) To explore whether LEF (the prodrug) or its active metabolite A77-1726 alter mitochondrial function including the Ca^2+ dependent, cyclosporine A-sensitive mPT, we isolated mouse liver mitochondria and exposed them to LEF or A77-1726, and measured the concentration-dependent effects on the mitochondrial inner transmembrane potential (ΔΨm) using the cationic fluorescent probe, JC-1. Furthermore, the effects on the inductin of the mPT were assessed by monitoring large amplitude swelling at 540 nm. In addition, the effects of LEF were determined in cultured immortalized human hepatocytes (HC04 cell line).

mouse liver mitochondria = assay: Mitochondrial inner transmembrane potential (ΔΨm), JC-1 probe, isolated liver mitochondria; type: biochemical; conditions: in vitro
Experimental: as §2, with “[…]-1726” for “A77-1726”, “[…]-1726,” for “A77-1726,”, “nm.” for “nm. In addition, the effects of LEF were determined in cultured immortalized human hepatocytes (HC04 cell line).”

mitochondria = assay: mPT-mediated cytochrome c release from mitochondria; type: biochemical
Description: as §1
Both LEF and A77-1726 attenuated the ΔΨm (at ≧1 uM).

HC04 cell line = assay: Acetaminophen-induced mPT-associated cytotoxicity in cultured immortalized human hepatocytes; type: cell-based
Experimental: Furthermore, the effects on the inductin of the mPT were assessed by monitoring large amplitude swelling at 540 nm. In addition, the effects of LEF were determined in cultured immortalized human hepatocytes (HC04 cell line).

| Compound | LDH release (indicative of cell injury) (HepG2 cells) | inhibition of the mPT (summary) ([1]; in vitro) | protection from the mPT ([1]; mPT caused by KH2PO4 (2 mM)) | protection from the mPT ([1]; mPT caused by nimesulide (30 uM)) | uncoupling (summary) (mouse liver mitochondria) | protection from mPT-mediated cytochrome c release from mitochondria (mitochondria) | protection from acetaminophen-induced mPT-associated cytotoxicity (HC04 cell line) |
| --- | --- | --- | --- | --- | --- | --- | --- |
| CC(=O)Nc1ccc(O)cc1 [APAP, acetaminophen] | did not respond |  |  |  |  |  |  |
| Cc1oncc1C(=O)Nc1ccc(C(F)(F)F)cc1 [LEF, Leflunomide] |  | potent inhibitors | completely protected | completely protected | weak uncouplers | protected | completely protected |
